The values that follow come from patent publication US12357603B2, “Acyl sulfonamides for treating cancer” (Bayer Aktiengesellschaft, priority 2019, dated 2025).

SMILES strings stand for the structures.

The test system of one experiment is MDA-MB-436 cells. Kind of experiment: Proliferation assay MDA-MB-436, negative control cell line (Alamar Blue, 144 h). The experiment is classed as cell-based. As to conditions: Homo sapiens, MDA-MB-436, 144 h, arithmetic mean. In short, it runs like this: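 MDA-MB-436 cells (3000/well, DMEM/Ham's F12 with 2.5% FBS) treated 24 h after plating with compounds at 2.0×10E-5 to 2.0×10E-9 M (9 dilutions, 0.2% DMSO), triplicates, 144 h at 37 °C, 5% CO2. Viability by Alamar Blue, 2 h, fluorescence at 590 nm.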
(In general: Resazurin is reduced to fluorescent resorufin, in cell work by metabolically active cells.)

For another experiment, the system named is ZR-75-1 cells. Put plainly: Proliferation assay ZR-75-1 (Alamar Blue, 144 h). As to conditions: Homo sapiens, ZR-75-1, 144 h, arithmetic mean, read-out: ZR75-1 proliferation assay, EC50 [M] (arithmetic mean). Format: cell-based. In short, it runs like this:
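Cells seeded at 3000/well in RPMI 1640 with 2.5% FBS and treated 24 h later across 2.0×10E-5 to 2.0×10E-9 M (9 dilutions, 0.2% DMSO, triplicate). After 144 h at 37 °C, 5% CO2, viability read by Alamar Blue fluorescence at 590 nm following 2 h reagent incubation.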

Experiment [1] addresses Recombinant human GST-tagged Kat6b protein (431-end). Put plainly: Kat6b activity assay (TR-FRET, acetylation of biotinylated Histone-H4-derived peptide). The experiment is classed as biochemical. As to conditions: 30 mins at 22° C., read-out: KAT6B activity assay IC50 [mol/l] (arithmetic mean). The protocol:
Kat6b inhibitory activities of the compounds described in the present invention were quantified using a Fluorescence Resonance Energy Transfer (TR-FRET) assay which measures acetylation of a synthetic, biotinylated Histone-H4-derived peptide by the enzyme.
In this case 50 nl DMSO were used instead of compounds. […] IC50 values were determined by regression analysis based on a 4 parameter equation (minimum, maximum, ICM, Hill; Y=Max+(Min−Max)/(1+(X/ICso) Hill) using the Screener Software (Genedata).
On the technique in general: In TR-FRET formats the signal depends on donor and acceptor labels being close together.

In experiment [2] the test system is ESR1 transcription (luciferase signal in MVLN cells). Put plainly: Repression of ESR1 transcription, luciferase reporter in MVLN cells. Format: cell-based. The note with it: Homo sapiens, MVLN, inhibition of luciferase signal in MVLN cells; arithmetic mean. In short, it runs like this: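 MVLN cells (constitutive ER, stably carrying a Vitellogenin A2 hormone-responsive element–luciferase reporter) treated in duplicate; luciferase read after 24 h. Cell density checked by Alamar Blue fluorescence (530/590 nm) after 2 h to exclude cell-loss effects.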

The target of experiment [3] is Recombinant human His-tagged Kat6a protein (amino acids 194-810) (Homo sapiens (Human), UniProt Q92794). Kind of experiment: Kat6a activity assay (TR-FRET, acetylation of biotinylated Histone-H4-derived peptide). Format: biochemical. The note with it: 60 mins at 22° C., read-out: KAT6A-DPF/HAT domain IC50 [mol/l] (arithmetic mean). The method in brief:
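Sf9-expressed human His-Kat6a (aa 194-810) incubated 60 min at 22 °C with compounds (0.01-20 μM) in Tris pH 8 buffer containing 220 nM biotinylated H4 peptide (aa 1-24) and 600 nM acetyl-CoA. Acetyl-K8 detected by TR-FRET (665/620 nm ratio); IC50 by four-parameter fit versus DMSO controls.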

Recombinant human His-tagged Kat6a protein (amino acids 194-810), sequence (Q92794 194-810): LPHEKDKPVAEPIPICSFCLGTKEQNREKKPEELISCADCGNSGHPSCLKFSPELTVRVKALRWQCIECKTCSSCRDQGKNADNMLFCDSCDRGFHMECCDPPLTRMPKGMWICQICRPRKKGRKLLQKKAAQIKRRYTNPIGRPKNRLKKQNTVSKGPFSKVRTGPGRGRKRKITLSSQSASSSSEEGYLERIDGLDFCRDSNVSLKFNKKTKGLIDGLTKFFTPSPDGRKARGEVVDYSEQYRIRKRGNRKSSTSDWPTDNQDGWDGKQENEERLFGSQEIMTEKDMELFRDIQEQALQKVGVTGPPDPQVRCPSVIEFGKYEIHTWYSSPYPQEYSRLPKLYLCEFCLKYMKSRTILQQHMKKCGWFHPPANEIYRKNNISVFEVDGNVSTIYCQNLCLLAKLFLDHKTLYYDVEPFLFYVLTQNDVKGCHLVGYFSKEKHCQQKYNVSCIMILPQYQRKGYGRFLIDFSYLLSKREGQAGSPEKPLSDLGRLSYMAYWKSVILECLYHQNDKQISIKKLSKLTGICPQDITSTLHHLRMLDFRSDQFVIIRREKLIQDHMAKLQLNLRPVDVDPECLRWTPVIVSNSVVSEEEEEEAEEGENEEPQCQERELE

Consider `COc1ccc(C(C)(C)C)cc1S(=O)(=O)NC(=O)c1cc2ccc(N(C)C)cc2o1` [Example 185, N-((5-(tert-butyl)-2-methoxyphenyl)sulfonyl)-6-(dimethylamino)benzofuran-2-carboxamide], for which the EC50 in the experiment with MDA-MB-436 cells is more than 20000 nM; in the experiment on ZR-75-1 cells it was 1.69e-08 M. Moreover, the IC50 came to 13.9 nM in experiment [1], 15.1 nM in experiment [2] and 2.63 nM in experiment [3].
Turning to `CN(C)c1ccc2cc(C(=O)NS(=O)(=O)c3ccccc3-c3cccc(Cl)c3)sc2c1` [Example 49, N-(3′-Chloro[1,1′-biphenyl]-2-sulfonyl)-6-(dimethylamino)-1-benzothiophene-2-carboxamide], the EC50 is more than 20000 nM in the experiment on MDA-MB-436 cells and 5.17e-06 M in the experiment with ZR-75-1 cells. Further, the IC50 in experiment [1] stood at 528 nM; in experiment [2], 2470 nM; in experiment [3], 310 nM.
The matching figures for `CC(C)c1ccccc1S(=O)(=O)NC(=O)c1cc2ccc(N(C)C)cc2o1` [Example 77, 6-(Dimethylamino)-N-[2-(propan-2-yl)benzene-1-sulfonyl]-1-benzofuran-2-carboxamide]: more than 20000 nM, 1.48e-06 M, 546 nM, 152 nM and 272 nM.
The matching figures for `CN(C)c1ccc2cc(C(=O)NS(=O)(=O)c3ccccc3-c3ccccc3)oc2c1C(F)(F)F` [Example 202, N-([1,1′-biphenyl]-2-sulfonyl)-6-(dimethylamino)-7-(trifluoromethyl)-1-benzofuran-2-carboxamide]: more than 20000 nM, more than 2e-05 M, 3010 nM, more than 20000 nM and 1970 nM.
On to `CN(C)c1ccc2cc(C(=O)NS(=O)(=O)c3cc(C(C)(C)C)ccc3OCC3CC3)oc2c1` [Example 180, N-((5-(tert-butyl)-2-(cyclopropylmethoxy)phenyl)sulfonyl)-6-(dimethylamino)benzofuran-2-carboxamide], for which the EC50 with MDA-MB-436 cells is more than 20000 nM; in the experiment with ZR-75-1 cells, 3.77e-08 M. Further, the IC50 in experiment [1] was 21.3 nM; in experiment [2], 22.9 nM; in experiment [3] it was 4.36 nM.
On to `CCCCCOc1ccccc1S(=O)(=O)NC(=O)c1cc2ccc(N(C)C)cc2o1` [Example 90, 6-(Dimethylamino)-N-[2-(pentyloxy)benzene-1-sulfonyl]-1-benzofuran-2-carboxamide], for which the EC50 was more than 20000 nM in the experiment on MDA-MB-436 cells and 8.08e-07 M in the experiment with ZR-75-1 cells. Moreover, the IC50 is 357 nM in experiment [1], 312 nM in experiment [2] and 194 nM in experiment [3].
The matching figures for `COc1cccc(C(F)(F)F)c1S(=O)(=O)NC(=O)c1cc2ccc(N(C)C)cc2o1` [Example 132, 6-(Dimethylamino)-N-[2-methoxy-6-(trifluoromethyl)benzene-1-sulfonyl]-1-benzofuran-2-carboxamide]: more than 20000 nM, 1.05e-07 M, 72.7 nM, 80.1 nM and 134 nM.
The matching figures for `CN(C)c1ccc2cc(C(=O)NS(=O)(=O)c3ccccc3-c3cccc(Cl)c3)oc2c1` [Example 16, N-(3′-Chloro[1,1′-biphenyl]-2-sulfonyl)-6-(dimethylamino)-1-benzofuran-2-carboxamide]: more than 20000 nM, 1.55e-07 M, 50.5 nM, 126 nM and 66.3 nM.
The matching figures for `CN(C)c1ccc2cc(C(=O)NS(=O)(=O)c3ccccc3OCC(F)(F)F)oc2c1` [Example 74, 6-(Dimethylamino)-N-[2-(2,2,2-trifluoroethoxy)benzene-1-sulfonyl]-1-benzofuran-2-carboxamide]: more than 20000 nM, 1.65e-07 M, 228 nM, 117 nM and 128 nM.
As for `Cc1ccnc2c(S(=O)(=O)NC(=O)c3cc4ccc(N(C)C)cc4o3)cccc12` [Example 91, 6-(Dimethylamino)-N-(4-methylquinoline-8-sulfonyl)-1-benzofuran-2-carboxamide], the EC50 was more than 20000 nM with MDA-MB-436 cells and 7.79e-07 M in the experiment on ZR-75-1 cells. Moreover, the IC50 in experiment [1] came out at 92.2 nM; in experiment [2] it was 365 nM; in experiment [3], 74.2 nM.
The matching figures for `CN(C)c1ccc2cc(C(=O)NS(=O)(=O)c3cc(C#N)ccn3)oc2c1` [Example 29, N-(4-Cyanopyridine-2-sulfonyl)-6-(dimethylamino)-1-benzofuran-2-carboxamide]: more than 20000 nM, 1.88e-05 M, 5920 nM, more than 20000 nM and 6240 nM.
For the compound `CN(C)c1ccc2cc(C(=O)NS(=O)(=O)c3cc(C(C)(C)C)ccc3OCC(F)(F)F)oc2c1` [Example 181, N-[(5-(tert-butyl)-2-(2,2,2-trifluoroethoxy)phenyl)sulfonyl]-6-(dimethylamino)benzofuran-2-carboxamide], the EC50 in the experiment with MDA-MB-436 cells is more than 20000 nM; in the experiment on ZR-75-1 cells, 9.93e-08 M. For the same compound, the values for the IC50 in experiment [1], in experiment [2] and in experiment [3] were 43.5 nM, 30.1 nM and 11.8 nM, respectively.
For `COc1ccccc1S(=O)(=O)NC(=O)c1cc2ccc(N(C)C)cc2o1` [Example 114, 6-(Dimethylamino)-N-(2-methoxybenzene-1-sulfonyl)-1-benzofuran-2-carboxamide] the same measures were more than 20000 nM, 1.07e-07 M, 150 nM, 58 nM and 114 nM.
Turning to `CN(C)c1ccc2cc(C(=O)NS(=O)(=O)c3ccccc3C#N)oc2c1` [Example 33, N-(2-Cyanobenzene-1-sulfonyl)-6-(dimethylamino)-1-benzofuran-2-carboxamide], the EC50 was more than 20000 nM in the experiment on MDA-MB-436 cells and 6.26e-06 M with ZR-75-1 cells. The values for the IC50 in experiment [1] and in experiment [3] were more than 20000 nM and 2720 nM, respectively.
As to `Cc1ccccc1S(=O)(=O)NC(=O)c1cc2ccc(N(C)C)cc2o1` [Example 32, 6-(Dimethylamino)-N-(2-methylbenzene-1-sulfonyl)-1-benzofuran-2-carboxamide], the EC50 in the experiment on MDA-MB-436 cells was more than 20000 nM; with ZR-75-1 cells, 3.78e-07 M. The IC50 came out at 423 nM in experiment [1] and 224 nM in experiment [3].
The matching figures for `CN(C)c1ccc2cc(C(=O)NS(=O)(=O)c3ccccc3F)oc2c1` [Example 34, 6-(Dimethylamino)-N-(2-fluorobenzene-1-sulfonyl)-1-benzofuran-2-carboxamide]: more than 20000 nM, 5.78e-07 M, 504 nM and 417 nM.
The compound `CN(C)c1ccc2cc(C(=O)NS(=O)(=O)c3ccccc3-c3ccccc3)sc2c1` [Example 48, N-([1,1′-Biphenyl]-2-sulfonyl)-6-(dimethylamino)-1-benzothiophene-2-carboxamide] returned an EC50 in the experiment on MDA-MB-436 cells of more than 20000 nM. Besides, the IC50 in experiment [1] came out at 450 nM; in experiment [2], 785 nM; in experiment [3], 310 nM.
Take `CN(C)c1ccc2cc(C(=O)NS(=O)(=O)c3ccccc3OC(F)(F)F)oc2c1` [Example 31, 6-(Dimethylamino)-N-[2-(trifluoromethoxy)benzene-1-sulfonyl]-1-benzofuran-2-carboxamide]: the EC50 is more than 20000 nM with MDA-MB-436 cells and 8.14e-08 M with ZR-75-1 cells. Also, the IC50 in experiment [1] stood at 59.1 nM; in experiment [3], 53 nM.
Consider `CC(C)c1ccc(OCC2CC2)c(S(=O)(=O)NC(=O)c2cc3ccc(N(C)C)cc3o2)c1` [Example 177, N-[2-(cyclopropylmethoxy)-5-isopropyl-phenyl]sulfonyl-6-(dimethylamino)benzofuran-2-carboxamide], for which the EC50 in the experiment on ZR-75-1 cells stood at 6.97e-08 M. Further, the IC50 in experiment [1] was 24 nM; in experiment [2], 29.1 nM; in experiment [3], 7.91 nM.
On to `COc1cc(C)ccc1S(=O)(=O)NC(=O)c1cc2ccc(N(C)C)cc2o1` [Example 127, 6-(Dimethylamino)-N-(2-methoxy-4-methylbenzene-1-sulfonyl)-1-benzofuran-2-carboxamide], for which the EC50 in the experiment with MDA-MB-436 cells is more than 20000 nM. The IC50 in experiment [1] was determined as 56.2 nM; in experiment [2], 62.5 nM; in experiment [3], 71.2 nM.
